In ChEMBL document CHEMBL1201862, “PubChem BioAssay data set” (2004):
Calls of active or inactive are those of the source.

Key:
Vero [1] = assay: cells; type: functional, cell-based; details: Chlorocebus sabaeus
Vero [2] = assay: cells; type: functional; details: Chlorocebus sabaeus
Cytochrome P450 3A4 = Cytochrome P450 3A4 (Homo sapiens, UniProt P08684); details: Potency;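 further: confirmatory qHTS run detecting inhibitors and substrates of CYP3A4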
[3] = biological target: Voltage-gated inwardly rectifying potassium channel KCNH2 (Homo sapiens, UniProt Q12809); details: Potency;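 further: confirmatory quantitative high-throughput screen measuring inhibition of hERG channel activity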
[4] = biological target: FAD-linked sulfhydryl oxidase ALR (Homo sapiens, UniProt P55789); assay: ALR-catalysed DTT oxidation blockers – biochemical, H2O2 detection, luminescence, cherry-pick, dose response (AID 493248)
[5] = viability of PTEN-deleted HCT116 cells – cell-based, HCT116 PTEN knockout, dose response (AID 1047); type: functional;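 further: HCT116 colon tumor cells with PTEN knocked out; cells exposed to compound for 60 hours before readout; potency for loss of cell viability measured by luminescence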
[6] = viability of HCT116 lacking mutant beta-catenin – cell-based, human colon tumor, dose response (AID 1045); type: functional;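 further: HCT116 colon tumor cells with beta catenin knocked out; cells exposed to compound for 60 hours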
[7] = THP-1 cell cytotoxicity, dose response, cytotoxicity control for non-replicating M. tuberculosis project (AID 489025); type: functional
[8] = HepG2 cell cytotoxicity, dose response, cytotoxicity control for non-replicating M. tuberculosis project (AID 489018); type: functional; details: Mycobacterium tuberculosis
[9] = Vero E6 cell cytotoxicity, dose response, cytotoxicity control for non-replicating M. tuberculosis project, secondary assay (AID 492998); type: functional, VeroE6; details: Vero C1008
cells [10] = type: functional
[11] = viability of uninfected HEp-2 cells – cell-based, HTS, cytotoxicity control for RSV inhibitor project, dose response (AID 2410); type: functional; details: human respiratory syncytial virus
[12] = growth inhibition of yeast DHODH-expressing 3D7 parasites – SYBR Green, dry powder samples, dose response (AID 1159570); type: functional, cell-based;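 further: parasite growth measured after 72 hours of compound exposure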
[13] = P. falciparum Dd2 growth inhibitors, dose response, SYBR Green, cherry-picked samples (AID 1159567); type: functional, cell-based
[14] = Dd2 malaria parasite growth inhibition potency – SYBR Green, dry powder samples, dose response (AID 1159566); type: functional, cell-based;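 further: potency for growth inhibition with lower SYBR green DNA signal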
[15] = toxicity to human hepatoma HepG2 cells – cell-based, cherry-picked samples, cytotoxicity control, dose response (AID 1159577); type: functional
[16] = growth inhibition of PfATP4-mutant resistant parasites – NITD609-resistant line, SYBR Green, dry powder, dose response (AID 1159571); type: functional, cell-based;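 further: parasites synchronized at ring stage by sorbitol before testing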
[17] = toxicity to human HepG2 hepatoma cells – cell-based, plate reader, dry powder samples, cytotoxicity control, dose response (AID 1159569); type: functional;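 further: inhibitor potency with signal falling toward the positive control level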
[18] = biological target: Luciferin 4-monooxygenase (Photinus pyralis, UniProt P08659); assay: Counter Screen for Luciferase-based Assay Positives. [Related pubchem assays: 620, 618, 411 ]
HT-1080 = assay: HT1080 cell viability loss – fluorescence readout (AID 620); type: functional, cell-based; details: Homo sapiens
[19] = decrease of insulin promoter-GFP reporter – imaging, high-content screening, mouse beta cells (AID 1628); type: functional; details: MIN6
[20] = MIN6 cell viability loss – mouse insulinoma, cytotoxicity control, dose response (AID 2122); type: functional;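 further: confirmatory high-throughput counterscreen run to flag cytotoxic compounds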
Cytochrome P450 2D6 = Cytochrome P450 2D6 (Homo sapiens, UniProt P10635);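 further: CYP2D6 member of a cytochrome P450 panel assay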
Cytochrome P450 1A2 = biological target: T1, Cytochrome P450 1A2 (Homo sapiens, UniProt P05177);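 further: PubChem cytochrome P450 panel assay, CYP1A2 panel member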
T1 sequence (P05177 whole entry): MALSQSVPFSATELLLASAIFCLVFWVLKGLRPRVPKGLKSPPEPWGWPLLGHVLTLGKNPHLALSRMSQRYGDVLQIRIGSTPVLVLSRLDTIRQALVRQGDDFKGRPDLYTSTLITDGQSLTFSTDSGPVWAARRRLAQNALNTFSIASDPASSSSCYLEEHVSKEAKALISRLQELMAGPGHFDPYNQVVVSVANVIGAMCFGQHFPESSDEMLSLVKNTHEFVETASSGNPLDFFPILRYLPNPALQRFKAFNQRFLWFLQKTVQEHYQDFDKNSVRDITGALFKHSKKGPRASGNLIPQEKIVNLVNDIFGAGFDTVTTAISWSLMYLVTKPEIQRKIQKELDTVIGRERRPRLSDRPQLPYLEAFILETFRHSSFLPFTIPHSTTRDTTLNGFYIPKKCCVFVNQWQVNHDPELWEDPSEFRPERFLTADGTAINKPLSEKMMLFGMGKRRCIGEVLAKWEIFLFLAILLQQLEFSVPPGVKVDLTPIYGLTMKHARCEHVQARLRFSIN

BJ [21] = assay: BJ-TERT fibroblast viability loss – cell-based, RAS-independent, luminescence, dose response (AID 1933); type: functional; details: Homo sapiens
BJ [22] = assay: cells; type: functional, cell-based; details: Homo sapiens
BJ [23] = assay: BJ-TERT-LT-ST fibroblast viability loss – cell-based, RAS-independent, luminescence, dose response (AID 1935); type: functional; details: Homo sapiens;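 further: BJ fibroblasts immortalized with TERT plus LT and ST oncogenes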
[24] = DRD fibroblast viability loss – cell-based, non-viral oncogenic, luminescence, dose response (AID 1934); type: functional; details: Homo sapiens
cells [25] = assay: cells

Sequence of Voltage-gated inwardly rectifying potassium channel KCNH2 (Q12809 whole entry): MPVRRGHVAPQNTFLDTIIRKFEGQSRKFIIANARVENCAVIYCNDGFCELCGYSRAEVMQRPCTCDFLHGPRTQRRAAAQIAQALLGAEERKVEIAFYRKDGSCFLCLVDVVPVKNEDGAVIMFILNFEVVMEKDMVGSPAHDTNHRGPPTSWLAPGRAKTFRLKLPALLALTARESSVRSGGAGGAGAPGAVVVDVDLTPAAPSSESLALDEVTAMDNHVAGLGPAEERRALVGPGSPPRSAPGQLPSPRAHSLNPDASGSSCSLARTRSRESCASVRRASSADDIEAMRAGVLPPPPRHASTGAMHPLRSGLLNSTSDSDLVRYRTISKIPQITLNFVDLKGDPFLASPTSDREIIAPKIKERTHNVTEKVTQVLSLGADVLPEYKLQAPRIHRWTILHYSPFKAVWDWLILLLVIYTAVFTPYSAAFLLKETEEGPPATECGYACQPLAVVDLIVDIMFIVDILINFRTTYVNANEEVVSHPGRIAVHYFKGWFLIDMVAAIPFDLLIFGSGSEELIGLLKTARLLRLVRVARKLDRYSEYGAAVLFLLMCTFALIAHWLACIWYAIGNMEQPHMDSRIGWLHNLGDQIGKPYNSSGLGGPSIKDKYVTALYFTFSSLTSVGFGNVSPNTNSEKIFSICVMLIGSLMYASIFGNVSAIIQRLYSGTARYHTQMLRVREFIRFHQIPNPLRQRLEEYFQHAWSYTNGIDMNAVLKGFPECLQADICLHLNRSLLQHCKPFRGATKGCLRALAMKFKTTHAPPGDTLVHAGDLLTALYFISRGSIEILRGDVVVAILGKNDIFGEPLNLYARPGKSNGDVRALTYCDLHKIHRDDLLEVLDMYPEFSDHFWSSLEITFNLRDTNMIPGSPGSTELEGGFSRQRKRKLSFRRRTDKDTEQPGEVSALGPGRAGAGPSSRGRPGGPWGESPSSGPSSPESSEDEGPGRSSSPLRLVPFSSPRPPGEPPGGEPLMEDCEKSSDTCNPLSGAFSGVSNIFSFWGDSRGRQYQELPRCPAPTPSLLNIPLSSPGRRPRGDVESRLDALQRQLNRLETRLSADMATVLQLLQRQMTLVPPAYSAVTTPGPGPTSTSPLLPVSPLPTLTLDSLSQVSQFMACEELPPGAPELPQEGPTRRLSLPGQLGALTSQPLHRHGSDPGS
Sequence of Cytochrome P450 2D6 (P10635 whole entry): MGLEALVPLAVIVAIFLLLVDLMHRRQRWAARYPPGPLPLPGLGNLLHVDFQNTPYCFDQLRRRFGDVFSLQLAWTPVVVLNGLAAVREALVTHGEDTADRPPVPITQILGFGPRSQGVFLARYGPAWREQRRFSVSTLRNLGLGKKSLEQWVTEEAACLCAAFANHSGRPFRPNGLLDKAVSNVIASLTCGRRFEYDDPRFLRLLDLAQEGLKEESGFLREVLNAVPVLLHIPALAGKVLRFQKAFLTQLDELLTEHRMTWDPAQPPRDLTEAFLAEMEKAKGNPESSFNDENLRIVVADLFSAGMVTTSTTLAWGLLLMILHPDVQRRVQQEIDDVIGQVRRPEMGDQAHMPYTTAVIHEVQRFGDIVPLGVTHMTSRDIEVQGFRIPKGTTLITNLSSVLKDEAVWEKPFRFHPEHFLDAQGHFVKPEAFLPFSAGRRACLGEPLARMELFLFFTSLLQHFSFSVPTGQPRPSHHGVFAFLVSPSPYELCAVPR
Sequence of Luciferin 4-monooxygenase (P08659 whole entry): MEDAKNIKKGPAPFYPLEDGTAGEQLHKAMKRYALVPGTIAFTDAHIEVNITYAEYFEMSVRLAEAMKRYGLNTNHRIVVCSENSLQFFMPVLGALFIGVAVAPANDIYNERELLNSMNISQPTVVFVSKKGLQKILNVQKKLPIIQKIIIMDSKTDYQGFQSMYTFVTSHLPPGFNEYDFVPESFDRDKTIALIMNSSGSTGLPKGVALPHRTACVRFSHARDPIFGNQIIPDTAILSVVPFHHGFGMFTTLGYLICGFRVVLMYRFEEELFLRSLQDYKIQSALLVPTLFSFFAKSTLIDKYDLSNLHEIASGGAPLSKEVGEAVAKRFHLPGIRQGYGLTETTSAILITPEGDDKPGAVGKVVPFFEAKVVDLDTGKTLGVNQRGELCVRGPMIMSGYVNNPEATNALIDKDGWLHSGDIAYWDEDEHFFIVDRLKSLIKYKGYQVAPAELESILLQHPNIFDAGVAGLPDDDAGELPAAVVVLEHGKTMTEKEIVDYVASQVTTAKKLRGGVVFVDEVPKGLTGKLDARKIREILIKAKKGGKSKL
Sequence of FAD-linked sulfhydryl oxidase ALR (P55789 whole entry): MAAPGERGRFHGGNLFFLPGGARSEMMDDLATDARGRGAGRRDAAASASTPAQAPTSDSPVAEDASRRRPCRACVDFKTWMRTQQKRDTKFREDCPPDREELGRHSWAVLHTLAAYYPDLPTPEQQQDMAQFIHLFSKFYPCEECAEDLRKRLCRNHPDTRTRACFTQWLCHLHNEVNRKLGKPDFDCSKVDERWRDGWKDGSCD
Sequence of Cytochrome P450 3A4 (P08684 whole entry): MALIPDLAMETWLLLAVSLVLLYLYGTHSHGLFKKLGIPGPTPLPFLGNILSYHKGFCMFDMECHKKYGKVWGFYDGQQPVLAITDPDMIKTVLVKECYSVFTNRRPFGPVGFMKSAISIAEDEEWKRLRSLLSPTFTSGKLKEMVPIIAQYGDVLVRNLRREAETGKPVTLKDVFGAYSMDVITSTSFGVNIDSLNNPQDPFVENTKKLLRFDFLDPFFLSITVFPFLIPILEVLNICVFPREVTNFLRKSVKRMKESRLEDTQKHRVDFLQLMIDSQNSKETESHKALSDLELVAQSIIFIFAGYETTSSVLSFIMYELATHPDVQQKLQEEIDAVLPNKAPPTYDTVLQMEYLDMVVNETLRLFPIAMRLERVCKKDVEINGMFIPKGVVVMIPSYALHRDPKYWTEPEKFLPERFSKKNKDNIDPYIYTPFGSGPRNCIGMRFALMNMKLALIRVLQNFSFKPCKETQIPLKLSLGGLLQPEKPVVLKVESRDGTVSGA

In the case of `O=C(c1ccc2c(c1)N(Cc1cccc(Cl)c1)C(=O)c1ccccc1S2(=O)=O)N1CCN(c2ccccn2)CC1`, the IC50 (Vero [1]) is reported as 10.1 µM (active) and the CC50 (Vero [2]) is reported as > 25 µM (active).
For `CN(C)c1ccc(C2(c3ccc(N(C)C)cc3)OC(=O)c3cc(N(C)C)ccc32)cc1`, the AC50 (Cytochrome P450 3A4) was 7.94 µM (inconclusive) and the AC50 [3] was 0.251 µM (inconclusive).
In the case of `CCCN1C(=O)c2ccccc2NC1c1ccc(OC)cc1O` (stereo not given), the AC50 [4] is reported as 12.2 µM (active) and the IC50 (Vero [1]) is reported as 24.1 µM (active).
In the case of `Clc1cccc2c1Sc1ccccc1CC2N1CCNCC1` (stereo not given), the EC50 [5] is reported as 7.22 µM (active), the EC50 [6] is reported as 7.41 µM (active) and the CC50 [7] is reported as 8.49 µM (active). The CC50 [8] was 7.37 µM (active), the CC50 [9] was 9.77 µM (active) and the IC50 (cells [10]) was 11.5 µM (active).
In the case of `COc1ccccc1-c1cc(C(=O)N/N=C/c2cccs2)c2ccccc2n1`, the CC50 [11] is reported as 24.7 µM (active), the IC50 (Vero [1]) is reported as 18.9 µM (active) and the CC50 (Vero [2]) is reported as > 25 µM (active).
In the case of `COc1ccc2c3c([nH]c2c1)[C@@H](CO)N(Cc1ccccc1)CC31CCN(Cc2cncnc2)CC1`, the AC50 [12] is reported as 1.27 µM (active), the AC50 [13] is reported as 2.12 µM (active) and the AC50 [14] is reported as 929 nM (active). The AC50 [15] was > 39 µM (inactive) and the AC50 [16] was 871 nM (active).
With `COc1ccc2c3c([nH]c2c1)[C@H](CO)N(Cc1ccccn1)CC31CCN(Cc2cccc(F)c2)CC1` the AC50 [12] was 1.12 µM (active), the AC50 [17] was 1.21 µM (active) and the AC50 [13] was 1.48 µM (active). For the same compound, the AC50 [14] was 422 nM (active), the AC50 [15] was > 39 µM (inactive) and the AC50 [16] was 559 nM (active).
For `CC(C)C(=O)Nc1ccc(NC(=O)c2ccccn2)cn1`, the EC50 [18] was 440 nM (active) and the EC50 (HT-1080) was > 50 µM (not active).
For `Cc1[nH]n(-c2ccc(Cl)cc2)c(=O)c1N=Nc1cccnc1`, the CC50 [7] was 26.7 µM (active), the CC50 [8] was > 20 µM (active) and the CC50 [9] was 12.2 µM (active). The IC50 (cells [10]) was 1.78 µM (active).
With `CN1CCN(c2ccccc2NC(=O)c2cccc(OCc3ccccc3)c2)CC1` the IC50 [19] was 4.3 µM (active) and the IC50 [20] was 4.17 µM (active).
With `NNC(=O)c1ccncc1` [ISONIAZID] the AC50 (Cytochrome P450 2D6) was 12.6 µM (inconclusive), the AC50 (Cytochrome P450 1A2) was 6.31 µM (inconclusive) and the AC50 [3] was 35.5 µM (inconclusive).
For `Cc1cccc(-n2c(SCC(=O)Nc3ncc(Cl)cc3Cl)nc3ccccc32)c1`, the CC50 [11] was 2.36 µM (active), the EC50 (BJ [21]) was 33.7 µM (active) and the EC50 (BJ [22]) was 50.5 µM (inconclusive). The EC50 (BJ [23]) was > 150 µM (not active), the EC50 [24] was 94.2 µM (active) and the IC50 (Vero [1]) was 0.56 µM (active). The CC50 (Vero [2]) was > 25 µM (active) and the IC50 (cells [25]) was 1.26 µM (active).
